This note sets out measurements from US9340548B2, “Substituted pyrazolo[3,4-a]carbazoles as hepatitis C inhibitors” (priority 2011, dated 2016).

The assay relates to HCVpp (HCV E1/E2, isolate Con1) entry into Hep3B2.1-7 cells. In words: microbe, parasite or virus in culture. Particulars: Hepatitis C virus, 72 h, read-out: EC50 (nM) Example 46. Format: cell-based.
For the compound `CC1(C)Cc2c[nH]nc2-c2[nH]c3ccc(C(=O)N[C@H]4CCOC4)cc3c21` [Compound 1006], the EC50 (commonly the concentration that produces a half-maximal response) turned out to be 112 nM.
`CC1(C)Cc2c[nH]nc2-c2[nH]c3ccc(C(N)=O)cc3c21` [Compound 1011]: the EC50 turned out to be 72 nM.
As to `CC1(C)Cc2c[nH]nc2-c2[nH]c3ccc(C(=O)NC4CCN(C(=O)c5ccccn5)C4)cc3c21` (centres unmarked) [Compound 1015], the EC50 was 12 nM.
For the compound `CC(C)NC(=O)N1CCC(NC(=O)c2ccc3[nH]c4c(c3c2)C(C)(C)Cc2c[nH]nc2-4)C1` (centres unmarked) [Compound 1118], the EC50 was determined as 19 nM.
For the compound `CC1(C)Cc2c[nH]nc2-c2[nH]c3ccc(C(=O)Nc4cccnc4)cc3c21` [Compound 1126], the EC50 is 65 nM.
In the case of `CC1(C)Cn2cnnc2-c2[nH]c3ccc(C(=O)NCc4ccccn4)cc3c21` [Compound 2001], the EC50 is 1400 nM.
For `Cn1cc2c(n1)-c1[nH]c3ccc(C(=O)NCc4ccccn4)cc3c1C(C)(C)C2` [Compound 2004], the EC50 was determined as 109 nM.
Consider `CC1(C)Cn2ccnc2-c2[nH]c3ccc(C(=O)NC4CCOCC4)cc3c21` [Compound 2012], for which the EC50 turned out to be 230 nM.
For the compound `CC1(C)Cc2sc(N)nc2-c2[nH]c3ccc(C(=O)NC4CCS(=O)(=O)C4)cc3c21` (centres unmarked) [Compound 2014], the concentration for a half-maximal effect (EC50) is 280 nM.
As for `Cc1nc2c(s1)CC(C)(C)c1c-2[nH]c2ccc(C(=O)NC3CCS(=O)(=O)C3)cc12` (centres unmarked) [Compound 2018], the EC50 was 320 nM.
As to `COC(=O)c1ccc2[nH]c3c(c2c1)C(C)(C)Cc1c[nH]nc1-3` [Compound 2020], the EC50 is 97 nM.
`CC1(C)Cc2cnc(N)nc2-c2[nH]c3ccc(C(=O)NCc4ccccn4)cc3c21` [Compound 2022]: the EC50 was found to be 1350 nM.
As for `Cc1ncc2c(n1)-c1[nH]c3ccc(C(=O)NC4CCS(=O)(=O)C4)cc3c1C(C)(C)C2` (centres unmarked) [Compound 2028], the EC50 worked out at 885 nM.
The figure for `CC(C)S(=O)(=O)CCNC(=O)c1ccc2[nH]c3c(c2c1)C1(CCC1)Cc1c[nH]nc1-3` [Compound 3011] is 2.8 nM; for `O=C(NC1CCN(C(=O)c2ccccn2)C1)c1ccc2[nH]c3c(c2c1)C1(CCC1)Cc1c[nH]nc1-3` (centres unmarked) [Compound 3018] it is 6.7 nM.
Consider `CC1CC2(Cc3c[nH]nc3-c3[nH]c4ccc(C(=O)NCc5ccccn5)cc4c32)C1` (centres unmarked) [Compound 4004], for which the EC50 was determined as 54 nM.
For `CC1(C)c2c[nH]nc2-c2[nH]c3ccc(C(=O)NC4CCN(C(=O)c5ncn[nH]5)C4)cc3c21` (centres unmarked) [Compound 5002], the EC50 was found to be 59 nM.
